Test results reported in article PMC8698454, “Anti-Colonization Effect of Au Surfaces with Self-Assembled Molecular Monolayers Functionalized with Antimicrobial Peptides on S. epidermidis” (Antibiotics, 2021).
Converted amounts (≈) assume the structure as drawn. Where two headings read alike, the source gives them in different places. Where a SMILES comes first, the peptide text is derived from it. [ ]: non-standard residue; d: D form. Bip = N[C@@H](Cc1ccc(-c2ccccc2)cc1)C(=O)O; Lys(N3) = [N-]=[N+]=NCCCC[C@H](N)C(=O)O

Tests used:
Type in all cases: cell-based
[1] = system: Escherichia coli ATCC 25922; conditions: for Antimicrobial Activity (MIC) E. coli: ATCC 25922; for MIC E. coli ATCC 25922: Table S3
Experimental: (§1) The minimal inhibitory concentration (MIC) of peptides 1a, 1b, 2a, and 2b were determined by broth microdilution according to the Clinical Laboratory Standard Institute (CLSI) method […]-A9. The MICs of the peptides 1c, 1d, 2c, and 2d were determined by broth dilution according to the European Committee for Antimicrobial Susceptibility Testing (EUCAST). Final concentrations of 0.5-256 μg/mL were tested against a panel of reference bacteria-S. aureus (ATCC 9144), S. epidermidis (1457), E. coli (ATCC 25922), and P. aeruginosa (ATCC 27853). Each strain was tested in biological triplicate. The MIC values were defined as the lowest concentration of the peptides resulting in no visual growth.

[2] = system: Pseudomonas aeruginosa ATCC 27853; conditions: for Antimicrobial Activity (MIC) P. aeruginosa: ATCC 27853; for MIC P. aeruginosa ATCC 27853: Table S3
Experimental: as §1

[3] = system: Staphylococcus aureus ATCC 9144; conditions: for Antimicrobial Activity (MIC) S. aureus: ATCC 9144; for MIC S. aureus ATCC 9144: Table S3
Experimental: as §1

[4] = system: Staphylococcus epidermidis 1457; conditions: for MIC S. epidermidis 1457: Table S3
Experimental: as §1

[5] = technical replicate 1, biological replicate BR1
[6] = technical replicate 1, biological replicate BR2
[7] = technical replicate 1, biological replicate BR3
[8] = technical replicate 2, biological replicate BR1
[9] = technical replicate 2, biological replicate BR2
[10] = technical replicate 2, biological replicate BR3
[11] = technical replicate 3, biological replicate BR1
[12] = technical replicate 3, biological replicate BR2
[13] = technical replicate 3, biological replicate BR3
[14] = broth microdilution CLSI M07-A9 (1a,1b,2a,2b) or broth dilution EUCAST (1c,1d,2c,2d), 0.5-256 µg/mL tested, biological triplicate, no visual growth

| Molecule | MIC E. coli ATCC 25922 [1, 5] | MIC E. coli ATCC 25922 [1, 6] | MIC E. coli ATCC 25922 [1, 7] | MIC E. coli ATCC 25922 [1, 8] | MIC E. coli ATCC 25922 [1, 9] | MIC E. coli ATCC 25922 [1, 10] | MIC E. coli ATCC 25922 [1, 11] | MIC E. coli ATCC 25922 [1, 12] | MIC E. coli ATCC 25922 [1, 13] | MIC P. aeruginosa ATCC 27853 [2, 5] | MIC P. aeruginosa ATCC 27853 [2, 6] | MIC P. aeruginosa ATCC 27853 [2, 7] | MIC P. aeruginosa ATCC 27853 [2, 8] | MIC P. aeruginosa ATCC 27853 [2, 9] | MIC P. aeruginosa ATCC 27853 [2, 10] | MIC P. aeruginosa ATCC 27853 [2, 11] | MIC P. aeruginosa ATCC 27853 [2, 12] | MIC P. aeruginosa ATCC 27853 [2, 13] | MIC S. aureus ATCC 9144 [3, 5] | MIC S. aureus ATCC 9144 [3, 6] | further results |
| --- | --- | --- | --- | --- | --- | --- | --- | --- | --- | --- | --- | --- | --- | --- | --- | --- | --- | --- | --- | --- | --- |
| [N-]=[N+]=NCCCC[C@H](NC(=O)[C@H](Cc1ccccc1)NC(=O)[C@H](CCCNC(=N)N)NC(=O)[C@H](Cc1ccc(-c2ccccc2)cc1)NC(=O)[C@H](Cc1ccc(-c2ccccc2)cc1)NC(=O)[C@@H](N)CCCNC(=N)N)C(N)=O [2c] (H-R[Bip][Bip]RF[Lys(N3)]-NH2) | 8 µg/mL (≈ 7.43 µM) | 8 µg/mL (≈ 7.43 µM) | 16 µg/mL (≈ 14.9 µM) | 8 µg/mL (≈ 7.43 µM) | 8 µg/mL (≈ 7.43 µM) | 16 µg/mL (≈ 14.9 µM) | 8 µg/mL (≈ 7.43 µM) | 16 µg/mL (≈ 14.9 µM) | 8 µg/mL (≈ 7.43 µM) | 8 µg/mL (≈ 7.43 µM) | 8 µg/mL (≈ 7.43 µM) | 16 µg/mL (≈ 14.9 µM) | 16 µg/mL (≈ 14.9 µM) | 16 µg/mL (≈ 14.9 µM) | 16 µg/mL (≈ 14.9 µM) | 16 µg/mL (≈ 14.9 µM) | 8 µg/mL (≈ 7.43 µM) | 16 µg/mL (≈ 14.9 µM) | 8 µg/mL (≈ 7.43 µM) | 4 µg/mL (≈ 3.71 µM) | Antimicrobial Activity (MIC) E. coli [1]: 8 µg/mL; Antimicrobial Activity (MIC) P. aeruginosa [2]: 16 µg/mL; Antimicrobial Activity (MIC) S. aureus [3]: 8 µg/mL; MIC S. aureus ATCC 9144 [3, 7]: 8 µg/mL (≈ 7.43 µM); MIC S. aureus ATCC 9144 [3, 8]: 8 µg/mL (≈ 7.43 µM); MIC S. aureus ATCC 9144 [3, 9]: 8 µg/mL (≈ 7.43 µM); MIC S. aureus ATCC 9144 [3, 10]: 8 µg/mL (≈ 7.43 µM); MIC S. aureus ATCC 9144 [3, 11]: 8 µg/mL (≈ 7.43 µM); MIC S. aureus ATCC 9144 [3, 12]: 4 µg/mL (≈ 3.71 µM); MIC S. aureus ATCC 9144 [3, 13]: 8 µg/mL (≈ 7.43 µM); Antimicrobial Activity (MIC) S. epidermidis [4]; 1457: 4 µg/mL; MIC S. epidermidis 1457 [4, 5]: 8 µg/mL (≈ 7.43 µM); MIC S. epidermidis 1457 [4, 6]: 4 µg/mL (≈ 3.71 µM); MIC S. epidermidis 1457 [4, 7]: 8 µg/mL (≈ 7.43 µM); MIC S. epidermidis 1457 [4, 8]: 4 µg/mL (≈ 3.71 µM); MIC S. epidermidis 1457 [4, 9]: 4 µg/mL (≈ 3.71 µM); MIC S. epidermidis 1457 [4, 10]: 8 µg/mL (≈ 7.43 µM); MIC S. epidermidis 1457 [4, 11]: 4 µg/mL (≈ 3.71 µM); MIC S. epidermidis 1457 [4, 12]: 4 µg/mL (≈ 3.71 µM); MIC S. epidermidis 1457 [4, 13]: 8 µg/mL (≈ 7.43 µM) |
| [N-]=[N+]=NCCCC[C@@H]1NC(=O)[C@H](Cc2ccccc2)NC(=O)[C@H](CCCNC(=N)N)NC(=O)[C@H](Cc2ccc(-c3ccccc3)cc2)NC(=O)[C@H](Cc2ccc(-c3ccccc3)cc2)NC(=O)[C@H](CCCNC(=N)N)NC1=O [2d] (cyclo(R[Bip][Bip]RF[Lys(N3)])) | 64 µg/mL (≈ 60.4 µM) | 64 µg/mL (≈ 60.4 µM) | 64 µg/mL (≈ 60.4 µM) | 64 µg/mL (≈ 60.4 µM) | 64 µg/mL (≈ 60.4 µM) | 32 µg/mL (≈ 30.2 µM) | 64 µg/mL (≈ 60.4 µM) | 64 µg/mL (≈ 60.4 µM) | 32 µg/mL (≈ 30.2 µM) | 256 µg/mL (≈ 241 µM) | 256 µg/mL (≈ 241 µM) | 256 µg/mL (≈ 241 µM) | 256 µg/mL (≈ 241 µM) | 256 µg/mL (≈ 241 µM) | 256 µg/mL (≈ 241 µM) | 256 µg/mL (≈ 241 µM) | 256 µg/mL (≈ 241 µM) | 256 µg/mL (≈ 241 µM) | 8 µg/mL (≈ 7.55 µM) | 4 µg/mL (≈ 3.77 µM) | Antimicrobial Activity (MIC) E. coli [1]: 64 µg/mL; Antimicrobial Activity (MIC) P. aeruginosa [2]: 256 µg/mL; Antimicrobial Activity (MIC) S. aureus [3]: 4 µg/mL; MIC S. aureus ATCC 9144 [3, 7]: 4 µg/mL (≈ 3.77 µM); MIC S. aureus ATCC 9144 [3, 8]: 4 µg/mL (≈ 3.77 µM); MIC S. aureus ATCC 9144 [3, 9]: 4 µg/mL (≈ 3.77 µM); MIC S. aureus ATCC 9144 [3, 10]: 8 µg/mL (≈ 7.55 µM); MIC S. aureus ATCC 9144 [3, 11]: 4 µg/mL (≈ 3.77 µM); MIC S. aureus ATCC 9144 [3, 12]: 4 µg/mL (≈ 3.77 µM); MIC S. aureus ATCC 9144 [3, 13]: 4 µg/mL (≈ 3.77 µM); Antimicrobial Activity (MIC) S. epidermidis [4]; 1457: 2 µg/mL; MIC S. epidermidis 1457 [4, 5]: 4 µg/mL (≈ 3.77 µM); MIC S. epidermidis 1457 [4, 6]: 2 µg/mL (≈ 1.89 µM); MIC S. epidermidis 1457 [4, 7]: 2 µg/mL (≈ 1.89 µM); MIC S. epidermidis 1457 [4, 8]: 2 µg/mL (≈ 1.89 µM); MIC S. epidermidis 1457 [4, 9]: 2 µg/mL (≈ 1.89 µM); MIC S. epidermidis 1457 [4, 10]: 2 µg/mL (≈ 1.89 µM); MIC S. epidermidis 1457 [4, 11]: 2 µg/mL (≈ 1.89 µM); MIC S. epidermidis 1457 [4, 12]: 2 µg/mL (≈ 1.89 µM); MIC S. epidermidis 1457 [4, 13]: 2 µg/mL (≈ 1.89 µM) |
| N3-PEG200-RWWRF [1a, azidopeptide N3-PEG200-RWWRF, PEG200-linked, amidated C-terminus] | 128 µg/mL | 256 µg/mL | 256 µg/mL | 128 µg/mL | 256 µg/mL | 256 µg/mL | 128 µg/mL | 256 µg/mL | 256 µg/mL | 256 µg/mL | 256 µg/mL | 256 µg/mL | 256 µg/mL | 256 µg/mL | 256 µg/mL | 256 µg/mL | 256 µg/mL | 256 µg/mL | 64 µg/mL | 64 µg/mL | Antimicrobial Activity (MIC) E. coli [1, 14]: 256 µg/mL; Antimicrobial Activity (MIC) P. aeruginosa [2, 14]: 256 µg/mL; Antimicrobial Activity (MIC) S. aureus ([3]; broth microdilution CLSI M07-A9 (1a,1b,2a,2b) or broth dilution EUCAST (1c,1d,2c,2d), 0.5-256 µg/mL tested, biological triplicate, lowest concentration with no visual growth): 64 µg/mL; MIC S. aureus ATCC 9144 [3, 7]: 64 µg/mL; MIC S. aureus ATCC 9144 [3, 8]: 64 µg/mL; MIC S. aureus ATCC 9144 [3, 9]: 64 µg/mL; MIC S. aureus ATCC 9144 [3, 10]: 64 µg/mL; MIC S. aureus ATCC 9144 [3, 11]: 64 µg/mL; MIC S. aureus ATCC 9144 [3, 12]: 64 µg/mL; MIC S. aureus ATCC 9144 [3, 13]: 64 µg/mL; MIC S. epidermidis 1457 [4, 5]: 32 µg/mL; MIC S. epidermidis 1457 [4, 6]: 32 µg/mL; MIC S. epidermidis 1457 [4, 7]: 32 µg/mL; MIC S. epidermidis 1457 [4, 8]: 32 µg/mL; MIC S. epidermidis 1457 [4, 9]: 32 µg/mL; MIC S. epidermidis 1457 [4, 10]: 32 µg/mL; MIC S. epidermidis 1457 [4, 11]: 32 µg/mL; MIC S. epidermidis 1457 [4, 12]: 32 µg/mL; MIC S. epidermidis 1457 [4, 13]: 32 µg/mL; Antimicrobial Activity (MIC) S. epidermidis ([4]; strain 1457, broth microdilution CLSI M07-A9 (1a,1b,2a,2b) or broth dilution EUCAST (1c,1d,2c,2d), 0.5-256 µg/mL tested, biological triplicate, no visual growth): 32 µg/mL |
